Measurements reported in PubChem BioAssay (NCI).
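Interpolation was linear, between the two tested concentrations surrounding the appropriate level; five concentrations were tested over 48 hours in 96-well plates. TGI denotes the concentration required for complete inhibition of growth.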

Tests used:
Experiment in all cases: DTP human tumour cell line panel, 48 h
UACC-257 melanoma = test system: UACC-257 melanoma
LOX IMVI melanoma = test system: LOX IMVI melanoma
HCT-116 colon = test system: HCT-116 colon
OVCAR-5 ovarian = test system: OVCAR-5 ovarian
SK-OV-3 ovarian = test system: SK-OV-3 ovarian
NCI-H226 lung = test system: NCI-H226 lung
OVCAR-3 ovarian = test system: OVCAR-3 ovarian
HOP-92 NSCLC = test system: HOP-92 NSCLC
IGROV1 ovarian = test system: IGROV1 ovarian
KM12 colon = test system: KM12 colon
HOP-62 NSCLC = test system: HOP-62 NSCLC
EKVX NSCLC = test system: EKVX NSCLC
TK-10 renal = test system: TK-10 renal
SK-MEL-5 melanoma = test system: SK-MEL-5 melanoma
SK-MEL-2 melanoma = test system: SK-MEL-2 melanoma
RPMI-8226 leukemia = test system: RPMI-8226 leukemia
SK-MEL-28 melanoma = test system: SK-MEL-28 melanoma
786-0 renal = test system: 786-0 renal
SF-539 CNS = test system: SF-539 CNS
SNB-78 CNS = test system: SNB-78 CNS
DMS 273 small cell lung = test system: DMS 273 small cell lung
DMS 114 small cell lung = test system: DMS 114 small cell lung
HOP-18 NSCLC = test system: HOP-18 NSCLC
CAKI-1 renal = test system: CAKI-1 renal
MOLT-4 leukemia = test system: MOLT-4 leukemia
HCT-15 colon = test system: HCT-15 colon
NCI-H460 lung = test system: NCI-H460 lung
OVCAR-4 ovarian = test system: OVCAR-4 ovarian
SF-268 CNS = test system: SF-268 CNS
SNB-75 CNS = test system: SNB-75 CNS
MALME-3M melanoma = test system: MALME-3M melanoma
COLO 205 colon = test system: COLO 205 colon
DLD-1 colon = test system: DLD-1 colon
A498 renal = test system: A498 renal
HT29 colon = test system: HT29 colon
SNB-19 CNS = test system: SNB-19 CNS
LXFL 529 NSCLC = test system: LXFL 529 NSCLC
ACHN renal = test system: ACHN renal
A549 NSCLC = test system: A549 NSCLC
UO-31 renal = test system: UO-31 renal
UACC-62 melanoma = test system: UACC-62 melanoma
XF 498 CNS = test system: XF 498 CNS
U251 CNS = test system: U251 CNS
M19-MEL melanoma = test system: M19-MEL melanoma
NCI-H23 lung = test system: NCI-H23 lung
OVCAR-8 ovarian = test system: OVCAR-8 ovarian
NCI-H522 lung = test system: NCI-H522 lung
KM20L2 colon = test system: KM20L2 colon
HL-60(TB) leukemia = test system: HL-60(TB) leukemia
SF-295 CNS = test system: SF-295 CNS
HCC-2998 colon = test system: HCC-2998 colon
M14 melanoma = test system: M14 melanoma
RXF 393 renal = test system: RXF 393 renal
K-562 leukemia = test system: K-562 leukemia
SW-620 colon = test system: SW-620 colon
SN12C renal = test system: SN12C renal
RXF-631 renal = test system: RXF-631 renal
SR leukemia = test system: SR leukemia
CCRF-CEM leukemia = test system: CCRF-CEM leukemia

Measured: TGI

CCCOCN1COCN=C1NC#N
43.8 µM: U251 CNS
45.1 µM: 786-0 renal
41.9 µM: DMS 273 small cell lung
29.8 µM: RXF 393 renal
32.6 µM: HCT-15 colon | COLO 205 colon
39.7 µM: DMS 114 small cell lung
88.1 µM: M19-MEL melanoma
32.3 µM: SW-620 colon
47.5 µM: LOX IMVI melanoma
not listed: RXF-631 renal | SR leukemia | CCRF-CEM leukemia
> 100 µM: all other assays above

Cc1cc(C)c2[s+]snc2c1
91.6 µM: RXF 393 renal
44.7 µM: HL-60(TB) leukemia
77.6 µM: NCI-H522 lung
77 µM: SR leukemia
not listed: HOP-92 NSCLC | RPMI-8226 leukemia | DMS 114 small cell lung | HCT-15 colon
> 100 µM: all other assays above

CC(C)(C)C[P+](C)(C)c1ccccc1
not listed: A498 renal | XF 498 CNS | NCI-H522 lung
> 100 µM: all other assays above

N#CC12Cc3ccc4c(c3-c3cccc(c31)CCN2C(=O)c1ccccc1)OCO4 (stereo not drawn)
not listed: SK-MEL-2 melanoma | CAKI-1 renal | NCI-H460 lung | OVCAR-4 ovarian | NCI-H522 lung | RXF-631 renal
> 100 µM: all other assays above

O=C(/C=C/c1ccc(Cl)c(Cl)c1)C1CCC(Cl)CC1 (stereo not drawn)
29.8 µM: DLD-1 colon
33 µM: SK-OV-3 ovarian | XF 498 CNS
31.4 µM: SK-MEL-28 melanoma
44.3 µM: SNB-75 CNS
32.1 µM: DMS 273 small cell lung
42.3 µM: SNB-78 CNS
33.6 µM: SF-539 CNS
32.3 µM: LXFL 529 NSCLC
32 µM: EKVX NSCLC | ACHN renal
33.8 µM: RXF-631 renal
30.7 µM: LOX IMVI melanoma | DMS 114 small cell lung
> 100 µM: HOP-62 NSCLC
38.5 µM: OVCAR-8 ovarian
50.1 µM: CAKI-1 renal
25.1 µM: HCT-116 colon
33.4 µM: SK-MEL-5 melanoma | M14 melanoma
28.4 µM: OVCAR-3 ovarian
46.1 µM: KM12 colon
35.8 µM: SF-295 CNS
30.6 µM: 786-0 renal
32.8 µM: HCC-2998 colon
32.9 µM: NCI-H522 lung
37.9 µM: RXF 393 renal
28.3 µM: U251 CNS
50.3 µM: COLO 205 colon
90.3 µM: TK-10 renal
41.1 µM: MALME-3M melanoma
83.1 µM: A498 renal
46.7 µM: KM20L2 colon
39 µM: SNB-19 CNS
33.9 µM: IGROV1 ovarian | UO-31 renal
38.8 µM: NCI-H23 lung
94.8 µM: NCI-H226 lung
35.1 µM: UACC-257 melanoma | HCT-15 colon
46.8 µM: A549 NSCLC
31.7 µM: HT29 colon | M19-MEL melanoma | SW-620 colon
21 µM: RPMI-8226 leukemia
58.1 µM: HOP-18 NSCLC
37.1 µM: SF-268 CNS
86.6 µM: HOP-92 NSCLC
31.2 µM: UACC-62 melanoma
39.6 µM: OVCAR-4 ovarian
73.8 µM: NCI-H460 lung
43.3 µM: OVCAR-5 ovarian
32.7 µM: SN12C renal

CC1=NN(c2ccccc2)C(=O)C1N=Nc1ccc(Br)c(C)c1 (stereo not drawn)
not listed: LOX IMVI melanoma | SF-268 CNS | UO-31 renal | NCI-H522 lung | SR leukemia
> 100 µM: all other assays above

C=C1CC(C/C=C(\C)CC2CC(=C)C(=O)O2)OC1=O (stereo not drawn)
not listed: NCI-H226 lung | RPMI-8226 leukemia | NCI-H522 lung
> 100 µM: all other assays above
